Experimental findings from US8106055B2, “Substituted amide compounds” (Gruenenthal GmbH, priority 2007, dated 2012) are described below.

SMILES strings stand for the structures.

Experiment [1] concerns the target T1, bradykinin 1 receptor (B1R) of the rat (Rattus norvegicus, UniProt P97583).
T1 construct: expressed in transfected cells; host or cells: CHO K1 cells
T1 sequence (P97583 1-337): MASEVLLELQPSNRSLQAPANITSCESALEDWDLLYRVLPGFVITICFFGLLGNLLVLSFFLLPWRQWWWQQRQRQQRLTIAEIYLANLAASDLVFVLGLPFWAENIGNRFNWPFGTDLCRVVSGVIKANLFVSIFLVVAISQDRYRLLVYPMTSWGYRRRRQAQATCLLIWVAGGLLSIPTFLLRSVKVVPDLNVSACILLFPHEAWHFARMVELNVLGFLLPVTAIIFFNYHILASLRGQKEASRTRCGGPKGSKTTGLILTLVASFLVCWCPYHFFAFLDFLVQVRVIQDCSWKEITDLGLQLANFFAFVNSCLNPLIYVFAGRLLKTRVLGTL
The experiment can be described thus: Functional investigation on the rat bradykinin 1 receptor (B1R), Ca2+ FLIPR assay in CHO K1 rB1R cells. Format: cell-based. The settings on record: test substance 10 μM, Ca2+ FLIPR, CHO K1 rB1R cells; for B1R Ant. r [10 μM] % Inhibition: B1R antagonism rat; for inhibition at 10 µM: CHO-K1, B1R antagonism rat, read-out: B1R Ant. r [10 μM] % Inhibition. Put shortly:
(§1)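 Stably transfected CHO K1 cells loaded with Fluo-4; FLIPR Ca2+ fluorescence peak (ex 488/em 540 nm). Compound added first (agonism vs Lys-Des-Arg9-bradykinin ≥50 nM human, Des-Arg9-bradykinin 10 μM rat), then after 10-20 min agonist at EC80; antagonism as % inhibition, IC50 from concentration series, n=2-3, N≥2.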

For experiment [2], the target named is T2, human bradykinin 1 receptor (B1R) (Homo sapiens, UniProt P46663).
T2 construct: expressed in transfected cells; host or cells: CHO K1 cells
T2 sequence (P46663 1-353): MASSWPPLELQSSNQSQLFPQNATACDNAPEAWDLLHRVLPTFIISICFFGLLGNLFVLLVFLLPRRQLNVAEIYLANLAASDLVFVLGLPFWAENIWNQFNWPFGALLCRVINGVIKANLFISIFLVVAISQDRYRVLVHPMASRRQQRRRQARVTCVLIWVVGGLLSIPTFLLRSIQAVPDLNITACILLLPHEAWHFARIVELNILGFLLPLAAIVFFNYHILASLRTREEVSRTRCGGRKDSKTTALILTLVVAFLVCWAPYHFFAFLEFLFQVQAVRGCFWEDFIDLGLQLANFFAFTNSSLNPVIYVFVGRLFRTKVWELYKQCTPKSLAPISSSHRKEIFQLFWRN
Nature of the experiment: Functional investigation on the human bradykinin 1 receptor (B1R), Ca2+ FLIPR assay in CHO K1 hB1R cells. Type of experiment: cell-based. The settings on record: test substance 10 μM, Ca2+ FLIPR, CHO K1 hB1R cells; for B1R Ant. h [10 μM] % Inhibition: B1R antagonism human; for inhibition at 10 µM: CHO-K1, B1R antagonism human, read-out: B1R Ant. h [10 μM] % Inhibition. Put shortly:
as §1

In the case of `CN(C)C(c1cccc(F)c1)C1CCC(CNC(=O)COC2CCN(S(=O)(=O)c3ccc(F)cc3)C2)CC1` (stereo not drawn) [Example 275], the “B1R Ant. r [10 μM] % Inhibition” value in experiment [1] stood at 17%. Besides, the “B1R Ant. h [10 μM] % Inhibition” value in experiment [2] is reported as 15%.
`CN(C)C(c1cccs1)C1CCC(CNC(=O)COC2CCN(S(=O)(=O)c3ccccc3)CC2)CC1` (stereo not drawn) [Example 276]: the “B1R Ant. r [10 μM] % Inhibition” value in experiment [1] worked out at 14%. In experiment [2], the “B1R Ant. h [10 μM] % Inhibition” value is reported as −12%.
The matching figures for `CN(C)C(c1cccc(F)c1)C1CCC(NC(=O)COC2CCCN(S(=O)(=O)c3ccccc3)C2)CC1` (stereo not drawn) [Example 277]: 4% and 4%.
With `O=C(COCCN(C1CC1)S(=O)(=O)c1c(Cl)cc(Cl)cc1Cl)NC1CCC(C(c2ccccc2)N2CCCC2)CC1` (stereo not drawn) [Example 603, 2-{2-[cyclopropyl-(2,4,6-trichlorobenzenesulfonyl)-amino]-ethoxy}-N-[4-(phenylpyrrolidin-1-ylmethyl)-cyclohexyl]-acetamide], the results for the inhibition at 10 µM in experiment [1] and in experiment [2] were 85% and 86%, respectively.
With `CN(CCOCC(=O)NC1CCC(C(c2ccccc2)N2CCCC2)CC1)S(=O)(=O)c1c(Cl)cc(Cl)cc1Cl` (stereo not drawn) [Example 606, 2-{2-[methyl-(2,4,6-trichlorobenzenesulfonyl)-amino]-ethoxy}-N-[4-(phenylpyrrolidin-1-yl-methyl)-cyclohexyl]-acetamide], the inhibition (usually the change of the read-out against control, counted positive when it falls) at 10 µM in experiment [1] amounted to 37%. Also, the “B1R Ant. h [10 μM] % Inhibition” value in experiment [2] is reported as 77%.
As to `CN(C)C(c1ccccc1)C1CCC(NC(=O)COC2CCCN(S(=O)(=O)c3c(Cl)cc(Cl)cc3Cl)C2)CC1` (stereo not drawn) [Example 608, N-[4-(dimethylaminophenylmethyl)-cyclohexyl]-2-[1-(2,4,6-trichlorobenzenesulfonyl)-piperidin-3-yloxy]-acetamide], the inhibition at 10 µM was 34% in experiment [1] and 78% in experiment [2].
The matching figures for `CN(C)C(c1ccccc1)C1CCC(NC(=O)COC2CCN(S(=O)(=O)c3c(Cl)cc(Cl)cc3Cl)C2)CC1` (stereo not drawn) [Example 609, N-[4-(dimethylaminophenylmethyl)-cyclohexyl]-2-[1-(2,4,6-trichlorobenzenesulfonyl)-pyrrolidin-3-yloxy]-acetamide]: 32% and 64%.
On to `CN(C)C(c1ccccc1)C1CCC(NC(=O)COCC2CCCN2S(=O)(=O)c2c(Cl)cc(Cl)cc2Cl)CC1` (stereo not drawn) [Example 611, N-[4-(Dimethylaminophenylmethyl)-cyclohexyl]-2-[1-(2,4,6-trichlorobenzenesulfonyl)-pyrrolidin-2-ylmethoxy]-acetamide], for which the “B1R Ant. r [10 μM] % Inhibition” value in experiment [1] turned out to be 68%. The “B1R Ant. h [10 μM] % Inhibition” value in experiment [2] is given as 97%.
On to `CN(C)C(c1ccccc1)C1CCC(NC(=O)COCC2CCCN2S(=O)(=O)c2c(Cl)cc(Cl)cc2Cl)CC1` (stereo not drawn) [Example 612, N-[4-(Dimethylaminophenylmethyl)-cyclohexyl]-2-[1-(2,4,6-trichlorobenzenesulfonyl)-pyrrolidin-2-ylmethoxy]-acetamide], for which, in experiment [1], the “B1R Ant. r [10 μM] % Inhibition” value amounted to 64%. For the same compound, the “B1R Ant. h [10 μM] % Inhibition” value in experiment [2] was determined as 103%.
Turning to `CN(C)C(c1ccccc1)C1CCC(NC(=O)COCC2CCCN2S(=O)(=O)c2c(Cl)cc(Cl)cc2Cl)CC1` (stereo not drawn) [Example 613, N-[4-(Dimethylaminophenylmethyl)-cyclohexyl]-2-[1-(2,4,6-trichlorobenzenesulfonyl)-pyrrolidin-2-ylmethoxy]-acetamide], the “B1R Ant. r [10 μM] % Inhibition” value in experiment [1] is 34%. Besides, the “B1R Ant. h [10 μM] % Inhibition” value in experiment [2] is recorded as 66%.
The matching figures for `CN(C)C(c1ccccc1)C1CCC(CNC(=O)COCCN(C)S(=O)(=O)c2c(Cl)cc(Cl)cc2Cl)CC1` (stereo not drawn) [Example 614, N-[4-(dimethylaminophenylmethyl)-cyclohexylmethyl]-2-{2-[(2,4,6-trichlorobenzenesulfonyl)-methylamino]-ethoxy}-acetamide]: 29% and 102%.
Consider `CN(C)C(c1ccccc1)C1CCC(NC(=O)COCCN(C)S(=O)(=O)c2c(Cl)cc(Cl)cc2Cl)C1` (stereo not drawn) [Example 615, N-[3-(dimethylaminophenylmethyl)-cyclopentyl]-2-{2-[(2,4,6-trichlorobenzenesulfonyl)-methylamino]-ethoxy}-acetamide], for which the inhibition at 10 µM in experiment [1] turned out to be 26%; in experiment [2] it was 95%.
